In US20240360107A1, “AN EIF4A INHIBITOR WITH A NOVEL MECHANISM OF ACTION” (ARIZONA BOARD OF REGENTS ON BEHALF OF THE UNIVERSITY OF …, priority 2021, published 2024):

Assays:
Assay in all cases: malachite green ATPase assay, eIF4A mutant
Type in all cases: biochemical
[1] = biological target: T1, eIF4A T158V mutant (Homo sapiens, UniProt P60842, T158V)
T1 construct: 6xHis with TEV protease site (N, cleaved yes); made in house; host or cells: E. coli BL21-CodonPlus
Description: (§1) Furthermore, T158 is predicted to form a hydrogen bond to the […] of the 6-nitro quinoline substitution of compound 28. The ability of the 6-nitro group to form two strong interactions with the binding pocket of eIF4A is the most likely explanation for why this substitution afforded 28 such a large gain in potency for compound 28 compared to other analogs in the inhibitor series. Mutagenesis and recombinant production of mutant eIF4A protein was performed to confirm the docking pose and predicted interactions between compound 28 and its eIF4A binding pocket (FIG. 6D).
(§2) ATPase assay. Recombinant WT or mutant eIF4A was added to a clear bottom 384 well plate (Greiner) in ATPase buffer (20 mM Tris pH 7.4, 80 mM KCl, 2.5 mM MgCl2, 1 mM DTT, 1% glycerol). Compounds were added and the plate was incubated at 37° C. for 20 min. ATP/RNA solution was added to afford a 20 μL per well reaction volume with 750 nM eIF4A, 250 μM ATP, and 0.25 mg/mL Yeast RNA (Sigma) for the initial screen and dose responses, and varying concentrations of ATP and RNA for the kinetic assays. The plate was incubated for 4 h at 37° C. for the initial screen and dose responses, and at seven time points (1 hour-7 hours) for kinetic assays. 0.04% v/v (final concentration) Tween-20 was added to a Malachite Green solution, and the Malachite Green (40 μL per well) was added. The solution was incubated for 5 minutes at room temperature and Absorbance at 660 nm was read on a SpectraMax iD5 plate reader (Molecular Devices).

[2] = biological target: T2, eIF4A R110L mutant (Homo sapiens, UniProt P60842, R110L)
T2 construct: 6xHis with TEV protease site (N, cleaved yes); made in house; host or cells: E. coli BL21-CodonPlus
Description: as §1, §2

[3] = biological target: T3, eIF4A R110K mutant (Homo sapiens, UniProt P60842, R110K)
T3 construct: 6xHis with TEV protease site (N, cleaved yes); made in house; host or cells: E. coli BL21-CodonPlus
Description: as §1, §2

[4] = biological target: T4, eIF4A R110E mutant (Homo sapiens, UniProt P60842, R110E)
T4 construct: 6xHis with TEV protease site (N, cleaved yes); made in house; host or cells: E. coli BL21-CodonPlus
Description: as §1, §2

[5] = biological target: T5, eIF4A T158A mutant (Homo sapiens, UniProt P60842, T158A)
T5 construct: 6xHis with TEV protease site (N, cleaved yes); made in house; host or cells: E. coli BL21-CodonPlus
Description: as §1, §2

[6] = biological target: T6, eIF4A R110M mutant (Homo sapiens, UniProt P60842, R110M)
T6 construct: 6xHis with TEV protease site (N, cleaved yes); made in house; host or cells: E. coli BL21-CodonPlus
Description: as §1, §2

T4 sequence (P60842 whole entry R110E): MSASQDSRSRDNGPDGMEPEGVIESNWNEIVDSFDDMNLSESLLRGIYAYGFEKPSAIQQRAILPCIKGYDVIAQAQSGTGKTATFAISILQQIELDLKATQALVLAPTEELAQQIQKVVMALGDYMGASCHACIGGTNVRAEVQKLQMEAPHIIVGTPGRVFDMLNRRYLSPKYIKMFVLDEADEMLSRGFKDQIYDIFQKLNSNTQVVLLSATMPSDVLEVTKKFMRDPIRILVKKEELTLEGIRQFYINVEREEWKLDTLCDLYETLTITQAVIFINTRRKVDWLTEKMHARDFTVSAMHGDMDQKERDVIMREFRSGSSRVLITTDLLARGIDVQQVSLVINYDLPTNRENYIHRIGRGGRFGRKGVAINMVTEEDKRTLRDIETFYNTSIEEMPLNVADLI
T3 sequence (P60842 whole entry R110K): as the sequence (P60842 whole entry R110E) above, with E110K counted along it
T5 sequence (P60842 whole entry T158A): as the sequence (P60842 whole entry R110E) above, with E110R, T158A counted along it
T2 sequence (P60842 whole entry R110L): as the sequence (P60842 whole entry R110E) above, with E110L counted along it
T1 sequence (P60842 whole entry T158V): as the sequence (P60842 whole entry R110E) above, with E110R, T158V counted along it
T6 sequence (P60842 whole entry R110M): as the sequence (P60842 whole entry R110E) above, with E110M counted along it

CCCCc1ccc(-c2ccc(-c3cc(C(=O)O)c4cc([N+](=O)[O-])ccc4n3)o2)cc1 [Compound 28, 2-(5-(4-butylphenyl)furan-2-yl)-6-nitroquinoline-4-carboxylic acid]
potency against eIF4A mutant in ATPase assay [1]: lost all potency | potency against eIF4A mutant in ATPase assay [2]: lost all potency | potency against eIF4A mutant in ATPase assay [3]: remained moderately potent | potency against eIF4A mutant in ATPase assay [4]: lost all potency | potency against eIF4A mutant in ATPase assay [5]: lost all potency | potency against eIF4A mutant in ATPase assay [6]: lost all potency
